In ChEMBL document CHEMBL1208723, “Synthesis and activity of polyacetylene substituted 2-hydroxy acids, esters, and amides against microbes of clinical importance” (Bioorg Med Chem Lett, 2010):

Columns and labels:
Pichia kudriavzevii = assay: Antifungal activity against Candida krusei; type: functional, organism-based
Candida albicans = assay: Antifungal activity against Candida albicans; type: functional, organism-based
Candida parapsilosis = assay: Antifungal activity against Candida parapsilosis; type: functional, organism-based
Pseudomonas aeruginosa = assay: Antibacterial activity against Pseudomonas aeruginosa ATCC 27853; type: functional; further: test concentration or dose not given here
Staphylococcus aureus [1] = assay: Antibacterial activity against Staphylococcus aureus ATCC 25923; type: functional; further: test concentration or dose not given here
Nakaseomyces glabratus = assay: Antifungal activity against Candida glabrata; type: functional, organism-based
Candida tropicalis = assay: Antifungal activity against Candida tropicalis; type: functional, organism-based
Streptococcus pyogenes = assay: Antibacterial activity against Streptococcus pyogenes ATCC 19615; type: functional; further: test concentration or dose not given here
Escherichia coli = assay: Antibacterial activity against Escherichia coli ATCC 25922; type: functional; further: test concentration or dose not given here
Staphylococcus aureus [2] = assay: Antibacterial activity against methicillin-resistant Staphylococcus aureus; type: functional; further: test concentration or dose not given here
[3] = Pichia kudriavzevii, read-out: IC50
[4] = Candida albicans, read-out: IC50
[5] = Lodderomyces parapsilosis, read-out: IC50
[6] = Nakaseomyces glabratus, read-out: IC50
[7] = Candida tropicalis, read-out: IC50

Compound | IC50 (Pichia kudriavzevii) | IC50 (Candida albicans) | IC50 (Candida parapsilosis) | inhibition (INH) (Pseudomonas aeruginosa) | inhibition (INH) (Staphylococcus aureus [1]) | IC50 (Nakaseomyces glabratus) | IC50 (Candida tropicalis) | inhibition (INH) (Streptococcus pyogenes) | inhibition (INH) (Escherichia coli) | inhibition (INH) (Staphylococcus aureus [2]) | IC50 (Pichia kudriavzevii; [3]) | IC50 (Candida albicans; [4]) | IC50 (Candida parapsilosis; [5]) | IC50 (Nakaseomyces glabratus; [6]) | IC50 (Candida tropicalis; [7])
CCCCC#CC#C/C=C\CCCCCCC(O)C(=O)O (stereo not drawn) | Not Active | Not Active | Not Active | >75% | 25% | Not Active | Not Active | – | – | – | – | – | – | – | –
CCCC#C/C=C\C#CCCCCC[C@@H]1O[C@](C)(OC)[C@@](C)(OC)OC1=O | Not Active | Not Active | Not Active | >75% | 25% | Not Active | Not Active | >75% | 50% | 25% | – | – | – | – | –
CCCCC/C=C\C#CC#CCCCCC[C@@H]1O[C@](C)(OC)[C@@](C)(OC)OC1=O | Not Active | Not Active | Not Active | >75% | 50% | Not Active | Not Active | >75% | 50% | 25% | – | – | – | – | –
CCCC#CC#CC#CCCCCCC(O)C(=O)O (stereo not drawn) | – | – | – | >75% | >75% | – | – | >75% | >75% | – | 500 µM | 500 µM | 125 µM | 500 µM | 500 µM
CCCC#C/C=C\C#CCCCCCC(O)C(=O)OCCCc1ccccc1 (stereo not drawn) | Not Active | Not Active | Not Active | >75% | 25% | Not Active | Not Active | >75% | 50% | 25% | – | – | – | – | –
CCCCCC#C/C=C\C#CCCCCCC(O)C(=O)O (stereo not drawn) | Not Active | Not Active | Not Active | >75% | >75% | Not Active | Not Active | >75% | 50% | – | – | – | – | – | –
CCCCCC#CC#CC#CCCCCCC(O)C(=O)O (stereo not drawn) | – | Not Active | – | >75% | >75% | – | – | 50% | >75% | – | 500 µM | – | 2 µM | 500 µM | 500 µM
CCCC#CC#CC#CCCCCC[C@@H]1O[C@](C)(OC)[C@@](C)(OC)OC1=O | Not Active | Not Active | Not Active | >75% | 50% | Not Active | Not Active | >75% | >75% | 25% | – | – | – | – | –
O=C(O)C(O)CCCCCCC#C/C=C\C#Cc1ccco1 (stereo not drawn) | Not Active | Not Active | – | >75% | >75% | Not Active | Not Active | >75% | >75% | 25% | – | – | 500 µM | – | –
CCCCCC#C/C=C\C#CC[C@@H]1O[C@](C)(OC)[C@@](C)(OC)OC1=O | Not Active | Not Active | Not Active | >75% | 25% | Not Active | Not Active | >75% | 50% | 25% | – | – | – | – | –
CCCCC#CC#C/C=C/CCCCCCC(O)C(=O)NCc1ccccc1 (stereo not drawn) | Not Active | Not Active | Not Active | >75% | 25% | Not Active | Not Active | >75% | 50% | 50% | – | – | – | – | –
CCCCCC#CC#C/C=C/CCCCCC(O)C(=O)OC (stereo not drawn) | Not Active | – | Not Active | >75% | 25% | – | Not Active | >75% | 50% | >75% | – | 1000 µM | – | 500 µM | –
CCCCC#C/C=C\C#CCCCCCCC(O)C(=O)O (stereo not drawn) | Not Active | Not Active | – | >75% | >75% | Not Active | Not Active | >75% | >75% | – | – | – | 500 µM | – | –
CCCCC#CC#C/C=C/CCCCCCC(O)C(=O)OC(C)C (stereo not drawn) | Not Active | Not Active | Not Active | >75% | 25% | Not Active | Not Active | >75% | 50% | 50% | – | – | – | – | –
CCCCCC#CC#C/C=C/CCCCCC(O)C(=O)O (stereo not drawn) | – | – | – | >75% | – | – | – | 50% | 25% | >75% | 500 µM | 500 µM | 2 µM | 500 µM | 500 µM
CCCCC/C=C\C#CC#CCCCCCC(O)C(=O)O (stereo not drawn) | – | Not Active | – | >75% | >75% | – | – | >75% | >75% | – | 1000 µM | – | 2 µM | 500 µM | 1000 µM
CCCCC#CC#C/C=C/CCCCCCC(O)C(=O)O (stereo not drawn) | – | – | – | >75% | 50% | – | – | 25% | – | – | 500 µM | 500 µM | 250 µM | 500 µM | 500 µM
CCCC/C=C\C#CC#CCCCCCC(O)C(=O)NCC(C)C (stereo not drawn) | Not Active | Not Active | Not Active | >75% | 50% | Not Active | Not Active | >75% | 50% | >75% | – | – | – | – | –
CCCCC#CC#C/C=C/CCCCCC[C@@H]1O[C@](C)(OC)[C@@](C)(OC)OC1=O | Not Active | Not Active | Not Active | >75% | 25% | Not Active | Not Active | >75% | 50% | 25% | – | – | – | – | –
CCCC#C/C=C\C#CCCCCCC(O)C(=O)O (stereo not drawn) | Not Active | Not Active | Not Active | >75% | >75% | Not Active | Not Active | >75% | 50% | – | – | – | – | – | –
CCCCCC/C=C\C#CC#CCCCCC(O)C(=O)OC (stereo not drawn) | Not Active | Not Active | – | >75% | 50% | – | Not Active | >75% | 25% | >75% | – | – | 30 µM | 1000 µM | –
